Reference: publication PMC8282704 (Clinical cancer research : an official journal of the …, 2021)

Key:
[1] = test system: other class I isoforms β, δ, and γ; conditions: cited from earlier work
[2] = test system: patients with HER2-negative metastatic breast cancer; assay type: in vivo
[3] = test system: patients with HER2-negative metastatic breast cancer; test: Treatment-related adverse events; assay type: in vivo, human; conditions: 11/43; N=1 at 250mg, N=10 at 350mg
[4] = Plasma pharmacokinetics, phase I, cycle 1; assay type: in vivo, human; conditions: 13 patients, with nab-paclitaxel
[5] = test system: PI3Kα isoform (both wild-type and mutated p110α); conditions: cited from earlier work
[6] = test system: hormone receptor-positive metastatic breast cancer; conditions: cited from earlier work
[7] = test system: PIK3CA/AKT1/PTEN-altered metastatic TNBC; conditions: cited from earlier work

## Cc1nc(NC(=O)N2CCC[C@H]2C(N)=O)sc1-c1ccnc(C(C)(C)C(F)(F)F)c1 [alpelisib]
[1]
  activity against the other class I isoforms β, δ, and γ: significantly less active
[2]; in combination with nab-paclitaxel 100mg/m^2 D1,8,15
  MTD of alpelisib: not reached
[2]; orally daily, in combination with nab-paclitaxel 100mg/m^2 D1,8,15 every 28 days
  RP2D of alpelisib: 350 mg
[3]
  Alpelisib dose reduction required, patients: 26%
[4]
  Tmax, Cmax, and AUC (0–8 hrs) of alpelisib: consistent with previous published reports
[5]
  inhibition of PI3Kα isoform: selectively inhibits PI3Kα isoform

## NC1(C(=O)N[C@@H](CCO)c2ccc(Cl)cc2)CCN(c2ncnc3[nH]ccc23)CC1 [capivasertib]
[6]
  PFS with addition to fulvestrant: improvement in PFS

## CC(C)NC[C@@H](C(=O)N1CCN(c2ncnc3c2[C@H](C)C[C@H]3O)CC1)c1ccc(Cl)cc1 [ipatasertib]
[7]
  PFS with addition to first-line paclitaxel: failed to show improvement in PFS
